Reference: patent publication US9023336B2, “Deuterium-enriched aldehydes” (Protia, LLC, priority 2013, dated 2015)

Experiment: Measurement of aldehyde oxidations (air autoxidation of aldehyde to carboxylic acid)
Assay type: physicochemical
Conditions: for amount of aldehyde remaining / loss of aldehyde: after 24 hours; for amount of aldehyde remaining: aldehyde 1 mmol in triacetin 2.0 mL + water 0.10 mL, stirred at room temperature under air, HPLC (benzaldehyde) or GC (hexanal); for loss of aldehyde: triacetin/water, room temperature, air
Procedure: General Procedure for Measurement of Aldehyde Oxidations
To a 12 mL clear, colorless, glass vial, fitted with a stir bar, was added the aldehyde (1 mmol), triacetin (2.0 mL), and water (0.10 mL, purified by reverse osmosis). The top of the vial was covered with a tissue and the mixture was stirred vigorously at room temperature. In the benzaldehyde reactions, (both H and D), 4.0 μL aliquots were withdrawn at 0, 0.5, 18, 25, 96, and 120 hour time points. These were diluted with ethanol (1.0 mL), and analyzed by HPLC. […] These were diluted with ethanol (1.0 mL) and analyzed by GC.
Instruments and Conditions Used for Analysis:
High pressure liquid chromatography: Agilent XDB C18 50×4.6 mm 1.8 micron column
Solvent A—Water (0.1% TFA)
Solvent B—Acetonitrile (0.07% TFA)
Gradient—5 min 95% A to 95% B then 1 minute hold. 1.5 mL/min
UV Detection (integration) @ 210 and 254 nm
HP 6890GC Column=Agilent DB-5 15 m×0.25 mm capillary column.
35° C. start (2 min hold), ramping to 100° C. at 5° C. per minute
Flame Ion Detection (integration)

Compound: [2H]C(=O)c1ccccc1 [benzaldehyde-D]
- amount of aldehyde remaining: approximately 90%
- loss of aldehyde: 10%
- reduction of autoxidation due to deuterium versus un-enriched aldehyde (after a period of approximately 24 hours): over 50%

Compound: O=Cc1ccccc1 [benzaldehyde-H, benzaldehyde, reference compound]
- amount of aldehyde remaining: approximately 30%
- loss of aldehyde: 70%
